# Source: publication PMC5218480 (PLoS ONE, 2017)
# Tested on: MV-4-11 cells
# Test: Gene expression microarray analysis (Affymetrix PrimeView) and GSEA
# Assay type: cell-based, human
# Set-up: RFU PODN (11730768_x_at) / Fold change /veh PODN (11730768_x_at) / RFU LINC00158 (11744669_a_at) / Fold change /veh LINC00158 (11744669_a_at) / RFU DUSP10 (11751237_a_at) / Fold change /veh DUSP10 (11751237_a_at) / RFU ID3 (11757404_x_at) / Fold change /veh ID3 (11757404_x_at) / RFU PLEKHG5 (11737974_s_at) / Fold change /veh PLEKHG5 (11737974_s_at) / RFU LRRC4B (11730491_at) / Fold change /veh LRRC4B (11730491_at) / RFU GIMAP4 (11747438_a_at) / Fold change /veh GIMAP4 (11747438_a_at) / RFU KRT8 (11758183_x_at) / Fold change /veh KRT8 (11758183_x_at) / RFU CNN1 (11734310_a_at) / Fold change /veh CNN1 (11734310_a_at) / RFU VPS37D (11726825_at) / Fold change /veh VPS37D (11726825_at) / RFU C10orf10 (11716522_x_at) / Fold change /veh C10orf10 (11716522_x_at) / RFU KIR2DL2 /// KIR2DL4 /// KIR2DL5A /// KIR2DL5B /// KIR2DS1 /// KIR2DS2 /// KIR2DS3 /// KIR2DS4 /// KIR3DL3 /// KIR3DL3 /// KIR3DS1 (11738374_at) / Fold change /veh KIR2DL2 /// KIR2DL4 /// KIR2DL5A /// KIR2DL5B /// KIR2DS1 /// KIR2DS2 /// KIR2DS3 /// KIR2DS4 /// KIR3DL3 /// KIR3DL3 /// KIR3DS1 (11738374_at) / RFU C1QL1 (11718748_at) / Fold change /veh C1QL1 (11718748_at) / RFU TMPRSS4 (11747572_a_at) / Fold change /veh TMPRSS4 (11747572_a_at) / RFU HAMP (11756126_x_at) / Fold change /veh HAMP (11756126_x_at) / RFU RNFT2 (11725882_a_at) / Fold change /veh RNFT2 (11725882_a_at) / RFU NR4A2 (11747474_a_at) / Fold change /veh NR4A2 (11747474_a_at) / RFU ABCC12 (11746883_a_at) / Fold change /veh ABCC12 (11746883_a_at) / RFU TMEM136 (11760407_x_at) / Fold change /veh TMEM136 (11760407_x_at) / RFU CLDN22 /// WWC2 (11732394_at) / Fold change /veh CLDN22 /// WWC2 (11732394_at) / RFU HLA-DPB1 (11760878_x_at) / Fold change /veh HLA-DPB1 (11760878_x_at) / RFU SPINT1 (11716480_a_at) / Fold change /veh SPINT1 (11716480_a_at) / RFU GAP43 (11754022_s_at) / Fold change /veh GAP43 (11754022_s_at) / RFU A4GNT (11735810_at) / Fold change /veh A4GNT (11735810_at) / RFU PRB3 (11715151_x_at) / Fold change /veh PRB3 (11715151_x_at) / RFU TUBB4B (11761932_at) / Fold change /veh TUBB4B (11761932_at) / RFU CAPN14 (11732068_a_at) / Fold change /veh CAPN14 (11732068_a_at) / RFU TMCC2 (11721928_a_at) / Fold change /veh TMCC2 (11721928_a_at) / RFU IRGQ (11745062_a_at) / Fold change /veh IRGQ (11745062_a_at) / RFU FAM174B (11720279_a_at) / Fold change /veh FAM174B (11720279_a_at) / RFU TMPRSS4 (11748680_a_at) / Fold change /veh TMPRSS4 (11748680_a_at) / RFU FAM212B (11763350_a_at) / Fold change /veh FAM212B (11763350_a_at) / RFU PLEKHG5 (11743358_a_at) / Fold change /veh PLEKHG5 (11743358_a_at) / RFU ZSCAN30 (11745921_a_at) / Fold change /veh ZSCAN30 (11745921_a_at) / RFU CMKLR1 (11741424_a_at) / Fold change /veh CMKLR1 (11741424_a_at) / RFU LOC101060620 /// MAPK8IP1 (11723275_at) / Fold change /veh LOC101060620 /// MAPK8IP1 (11723275_at) / RFU SPTSSB (11747773_x_at) / Fold change /veh SPTSSB (11747773_x_at) / RFU PRSS12 (11739890_at) / Fold change /veh PRSS12 (11739890_at) / RFU BIN1 (11741810_x_at) / Fold change /veh BIN1 (11741810_x_at) / RFU WNT11 (11732464_a_at) / Fold change /veh WNT11 (11732464_a_at) / RFU C10orf10 (11716521_a_at) / Fold change /veh C10orf10 (11716521_a_at) / RFU C5orf56 (11738089_at) / Fold change /veh C5orf56 (11738089_at) / RFU CYB561 (11721691_x_at) / Fold change /veh CYB561 (11721691_x_at) / RFU ANKRD19P (11752326_a_at) / Fold change /veh ANKRD19P (11752326_a_at) / RFU OR2T12 /// OR2T33 /// OR2T8 (11738714_s_at) / Fold change /veh OR2T12 /// OR2T33 /// OR2T8 (11738714_s_at) / RFU VCAN (11748164_a_at) / Fold change /veh VCAN (11748164_a_at) / RFU JSRP1 (11732532_at) / Fold change /veh JSRP1 (11732532_at) / RFU KRTAP10-11 (11738290_x_at) / Fold change /veh KRTAP10-11 (11738290_x_at) / RFU MYO3A (11730013_a_at) / Fold change /veh MYO3A (11730013_a_at) / RFU EBF3 (11725865_a_at) / Fold change /veh EBF3 (11725865_a_at) / RFU CAMK2N1 (11719241_x_at) / Fold change /veh CAMK2N1 (11719241_x_at) / RFU C5orf56 (11738088_a_at) / Fold change /veh C5orf56 (11738088_a_at) / RFU OLFML3 (11715873_a_at) / Fold change /veh OLFML3 (11715873_a_at) / RFU LOC100653217 /// NTM (11731650_a_at) / Fold change /veh LOC100653217 /// NTM (11731650_a_at) / RFU MAPK11 (11762145_a_at) / Fold change /veh MAPK11 (11762145_a_at) / RFU FIZ1 (11724087_x_at) / Fold change /veh FIZ1 (11724087_x_at) / RFU OASL (11726364_x_at) / Fold change /veh OASL (11726364_x_at) / RFU SOX15 (11748057_x_at) / Fold change /veh SOX15 (11748057_x_at) / RFU CD79A (11719716_a_at) / Fold change /veh CD79A (11719716_a_at) / RFU HIST1H1D (11736915_at) / Fold change /veh HIST1H1D (11736915_at) / RFU CASKIN2 (11723855_a_at) / Fold change /veh CASKIN2 (11723855_a_at) / RFU LOC730098 (11760151_x_at) / Fold change /veh LOC730098 (11760151_x_at) / RFU OR4N2 (11742367_at) / Fold change /veh OR4N2 (11742367_at) / RFU PRRT2 (11749266_a_at) / Fold change /veh PRRT2 (11749266_a_at) / RFU SNX32 (11753110_a_at) / Fold change /veh SNX32 (11753110_a_at) / RFU CDHR5 (11726645_a_at) / Fold change /veh CDHR5 (11726645_a_at) / RFU RCAN1 (11760418_a_at) / Fold change /veh RCAN1 (11760418_a_at) / RFU FAM167A (11723789_a_at) / Fold change /veh FAM167A (11723789_a_at) / RFU FAM26E (11764081_at) / Fold change /veh FAM26E (11764081_at) / RFU ISYNA1 (11749810_s_at) / Fold change /veh ISYNA1 (11749810_s_at) / RFU ACY1 (11761880_at) / Fold change /veh ACY1 (11761880_at) / RFU 11764098_at / Fold change /veh 11764098_at / RFU SAMD14 (11745864_x_at) / Fold change /veh SAMD14 (11745864_x_at) / RFU NPB (11741838_a_at) / Fold change /veh NPB (11741838_a_at) / RFU TMPRSS6 (11731388_a_at) / Fold change /veh TMPRSS6 (11731388_a_at) / RFU KRTAP10-2 (11738614_at) / Fold change /veh KRTAP10-2 (11738614_at) / RFU ARHGAP8 /// PRR5-ARHGAP8 (11727945_x_at) / Fold change /veh ARHGAP8 /// PRR5-ARHGAP8 (11727945_x_at) / RFU KRTAP5-7 /// NADSYN1 (11734609_at) / Fold change /veh KRTAP5-7 /// NADSYN1 (11734609_at) / RFU RASL12 (11751679_a_at) / Fold change /veh RASL12 (11751679_a_at) / RFU CDKN2B (11736163_a_at) / Fold change /veh CDKN2B (11736163_a_at) / RFU PRF1 (11729649_at) / Fold change /veh PRF1 (11729649_at) / RFU, ZNF638 /// ZNF638-IT1 / Fold change vs veh, ZNF638 /// ZNF638-IT1 / RFU, PANK3 / Fold change vs veh, PANK3 / RFU, SH3YL1 / Fold change vs veh, SH3YL1 / RFU, ZEB2 / Fold change vs veh, ZEB2 / RFU, NRIP1 / Fold change vs veh, NRIP1 / RFU, PTTG1IP / Fold change vs veh, PTTG1IP / RFU, CAPN2 / Fold change vs veh, CAPN2 / RFU, MED14 / Fold change vs veh, MED14 / RFU, SNORA58 / Fold change vs veh, SNORA58 / RFU, C1orf63 / Fold change vs veh, C1orf63 / RFU, LRRFIP1 / Fold change vs veh, LRRFIP1 / RFU, NDUFAF7 / Fold change vs veh, NDUFAF7 / RFU, SLC12A2 / Fold change vs veh, SLC12A2 / RFU, IBTK / Fold change vs veh, IBTK / RFU, ESF1 / Fold change vs veh, ESF1 / Fold change vs veh, TMEM50B / RFU, TAOK1 / Fold change vs veh, TAOK1 / RFU, ACBD3 / Fold change vs veh, ACBD3 / RFU, TMA16 / Fold change vs veh, TMA16 / RFU, RWDD3 / Fold change vs veh, RWDD3 / RFU, BCAT1 / Fold change vs veh, BCAT1 / RFU, EDEM3 / Fold change vs veh, EDEM3 / RFU, TMEM33 / Fold change vs veh, TMEM33 / RFU, WDR75 / Fold change vs veh, WDR75 / RFU, AHCTF1 / Fold change vs veh, AHCTF1 / RFU, TFRC / Fold change vs veh, TFRC / RFU, ZDHHC17 / Fold change vs veh, ZDHHC17 / RFU, NOM1 / Fold change vs veh, NOM1 / RFU, ARL8B / Fold change vs veh, ARL8B / RFU, ZBTB11 / Fold change vs veh, ZBTB11 / RFU, TAMM41 / Fold change vs veh, TAMM41 / RFU, KIAA1704 /// LOC100996395 / Fold change vs veh, KIAA1704 /// LOC100996395 / RFU, ING1 / Fold change vs veh, ING1 / RFU, TRMT61B / Fold change vs veh, TRMT61B / RFU, FUBP3 / Fold change vs veh, FUBP3 / RFU, TP53 / Fold change vs veh, TP53 / RFU, TNKS2 / Fold change vs veh, TNKS2 / RFU, ZFP14 / Fold change vs veh, ZFP14 / RFU, ACTR2 / Fold change vs veh, ACTR2 / RFU, PPP3R1 / Fold change vs veh, PPP3R1 / RFU, PIK3R1 / Fold change vs veh, PIK3R1 / RFU, HNRNPA1 / Fold change vs veh, HNRNPA1 / RFU, RNF170 / Fold change vs veh, RNF170 / RFU, ZNF28 / Fold change vs veh, ZNF28 / RFU, RNGTT / Fold change vs veh, RNGTT / RFU, OGT / Fold change vs veh, OGT / RFU, BRD1 / Fold change vs veh, BRD1 / RFU, MARS / Fold change vs veh, MARS / RFU, ZNF655 / Fold change vs veh, ZNF655 / RFU, FAHD1 / Fold change vs veh, FAHD1 / RFU, BDP1 / Fold change vs veh, BDP1 / RFU, LRRCC1 / Fold change vs veh, LRRCC1 / RFU, ARID1A / Fold change vs veh, ARID1A / RFU, ZNF146 / Fold change vs veh, ZNF146 / RFU, ZNF330 / Fold change vs veh, ZNF330 / RFU, GPN3 / Fold change vs veh, GPN3 / RFU, C9orf123 / Fold change vs veh, C9orf123 / RFU, N4BP2L2 / Fold change vs veh, N4BP2L2 / RFU, ARFIP1 / Fold change vs veh, ARFIP1 / RFU, FAM179B / Fold change vs veh, FAM179B / RFU, BCL10 / Fold change vs veh, BCL10 / RFU, UHRF1BP1L / Fold change vs veh, UHRF1BP1L / RFU, BET1 / Fold change vs veh, BET1 / RFU, CNOT2 / Fold change vs veh, CNOT2 / RFU, ZNF268 / Fold change vs veh, ZNF268 / Fold change vs veh, ZNF507 / RFU, DGCR2 / Fold change vs veh, DGCR2 / RFU, WDSUB1 / Fold change vs veh, WDSUB1 / Fold change vs veh, HSP90B1 /// MIR3652 / RFU, ADSS / Fold change vs veh, ADSS / RFU, GK / Fold change vs veh, GK / RFU, ZNF148 / Fold change vs veh, ZNF148 / RFU, TAF9 / Fold change vs veh, TAF9 / RFU, SLC1A5 / Fold change vs veh, SLC1A5 / RFU, SLMO2 / Fold change vs veh, SLMO2 / RFU, ABCC4 / Fold change vs veh, ABCC4 / RFU, LOC101060439 /// RAP1B / Fold change vs veh, LOC101060439 /// RAP1B / RFU, RFX7 / Fold change vs veh, RFX7 / RFU, GTPBP10 / Fold change vs veh, GTPBP10 / RFU, CNEP1R1 / Fold change vs veh, CNEP1R1 / RFU, BIVM-ERCC5 /// ERCC5 / Fold change vs veh, BIVM-ERCC5 /// ERCC5 / RFU, ILF3 / Fold change vs veh, ILF3 / RFU 11762660_at / Fold change /veh 11762660_at / RFU VCAN (11757783_s_at) / Fold change /veh VCAN (11757783_s_at) / RFU DDX43 (11728927_at) / Fold change /veh DDX43 (11728927_at) / RFU KRT8 (11758188_x_at) / Fold change /veh KRT8 (11758188_x_at) / RFU NKD1 (11759106_at) / Fold change /veh NKD1 (11759106_at) / RFU SRD5A1 (11742802_a_at) / Fold change /veh SRD5A1 (11742802_a_at) / RFU TPSAB1 /// TPSB2 (11721975_s_at) / Fold change /veh TPSAB1 /// TPSB2 (11721975_s_at) / RFU GSTM3 (11746129_a_at) / Fold change /veh GSTM3 (11746129_a_at) / RFU IL23R (11737362_x_at) / Fold change /veh IL23R (11737362_x_at) / RFU TMEM51 (11727254_a_at) / Fold change /veh TMEM51 (11727254_a_at) / RFU PIWIL2 (11732686_x_at) / Fold change /veh PIWIL2 (11732686_x_at) / RFU ORM1 (11744905_x_at) / Fold change /veh ORM1 (11744905_x_at) / RFU CCDC152 (11743942_at) / Fold change /veh CCDC152 (11743942_at) / RFU ECM1 (11717891_a_at) / Fold change /veh ECM1 (11717891_a_at) / RFU IL23R (11748794_a_at) / Fold change /veh IL23R (11748794_a_at) / RFU TNFAIP8L3 (11732012_x_at) / Fold change /veh TNFAIP8L3 (11732012_x_at) / RFU MBOAT4 (11741988_at) / Fold change /veh MBOAT4 (11741988_at) / RFU 11764193_at / Fold change /veh 11764193_at / RFU TMEM53 (11763286_at) / Fold change /veh TMEM53 (11763286_at) / RFU MAGEB2 (11727129_at) / Fold change /veh MAGEB2 (11727129_at) / RFU TMEM200A (11744735_a_at) / Fold change /veh TMEM200A (11744735_a_at) / RFU CCDC152 (11751479_a_at) / Fold change /veh CCDC152 (11751479_a_at) / RFU FAM211A (11726209_a_at) / Fold change /veh FAM211A (11726209_a_at) / RFU RGS16 (11746705_a_at) / Fold change /veh RGS16 (11746705_a_at) / RFU VCAN (11755009_s_at) / Fold change /veh VCAN (11755009_s_at) / RFU RHOB (11743442_s_at) / Fold change /veh RHOB (11743442_s_at) / RFU RGS16 (11720943_a_at) / Fold change /veh RGS16 (11720943_a_at) / RFU RGS16 (11720944_at) / Fold change /veh RGS16 (11720944_at) / RFU, VPS4B / Fold change vs veh, VPS4B / RFU, CREB1 / Fold change vs veh, CREB1 / RFU, DNAJC13 / Fold change vs veh, DNAJC13 / RFU, GNAQ / Fold change vs veh, GNAQ / RFU, CDK5R1 / Fold change vs veh, CDK5R1 / RFU, ZRANB3 / Fold change vs veh, ZRANB3 / RFU, CUL4A / Fold change vs veh, CUL4A / RFU, CCNY / Fold change vs veh, CCNY / RFU, UFL1 / Fold change vs veh, UFL1 / RFU, COG3 / Fold change vs veh, COG3 / RFU, DIAPH2 / Fold change vs veh, DIAPH2 / RFU, SKA2 / Fold change vs veh, SKA2 / RFU, AFF3 / Fold change vs veh, AFF3 / RFU, LMF1 / Fold change vs veh, LMF1 / RFU, IPO11 / Fold change vs veh, IPO11 / RFU, DFFB / Fold change vs veh, DFFB / RFU, FOXP1 / Fold change vs veh, FOXP1 / RFU, CARD8 / Fold change vs veh, CARD8 / RFU, STRN3 / Fold change vs veh, STRN3 / RFU, ADK / Fold change vs veh, ADK / RFU, RASSF2 / Fold change vs veh, RASSF2 / RFU, WIPF1 / Fold change vs veh, WIPF1 / RFU, LARP1B / Fold change vs veh, LARP1B / RFU, RASA1 / Fold change vs veh, RASA1 / RFU, RB1 / Fold change vs veh, RB1 / RFU, PPFIA1 / Fold change vs veh, PPFIA1 / RFU, MAT2A / Fold change vs veh, MAT2A / RFU, CCT5 / Fold change vs veh, CCT5 / RFU, WDR92 / Fold change vs veh, WDR92 / RFU, CUX1 / Fold change vs veh, CUX1 / RFU, TTC7A / Fold change vs veh, TTC7A / RFU, TMEM135 / Fold change vs veh, TMEM135 / RFU, DEPTOR / Fold change vs veh, DEPTOR / RFU, CPM / Fold change vs veh, CPM / RFU, DNAJB6 / Fold change vs veh, DNAJB6 / RFU, CACNA2D3 / Fold change vs veh, CACNA2D3 / RFU, DTX4 / Fold change vs veh, DTX4 / RFU, TFCP2 / Fold change vs veh, TFCP2 / RFU, GMCL1 /// GMCL1P1 / Fold change vs veh, GMCL1 /// GMCL1P1 / RFU, AEBP2 / Fold change vs veh, AEBP2 / RFU, SNHG1 /// SNORD22 /// SNORD25 /// SNORD26 /// SNORD27 /// SNORD28 /// SNORD29 /// SNORD31 / Fold change vs veh, SNHG1 /// SNORD22 /// SNORD25 /// SNORD26 /// SNORD27 /// SNORD28 /// SNORD29 /// SNORD31 / Fold change (Aza/veh), C12orf56 (ProbeSet 11735607_a_at) / Fold change (ACY-1035/veh), C12orf56 (ProbeSet 11735607_a_at) / Fold change (Aza/veh), FGFR1OP (ProbeSet 11751329_s_at) / Fold change (ACY-1035/veh), FGFR1OP (ProbeSet 11751329_s_at) / Fold change (Aza/veh), VPS36 (ProbeSet 11739960_a_at) / Fold change (ACY-1035/veh), VPS36 (ProbeSet 11739960_a_at) / RFU SYPL1 (11715823_x_at) / Fold change /veh SYPL1 (11715823_x_at) / RFU IGFBP7 (11715501_s_at) / Fold change /veh IGFBP7 (11715501_s_at) / RFU REEP3 (11722064_at) / Fold change /veh REEP3 (11722064_at) / RFU IGLL1 (11728026_x_at) / Fold change /veh IGLL1 (11728026_x_at): dose or concentration left out as unconfirmed
# Conditions: ProbeSet 11725901_x_at; LIST B
smiles,measurement,value
Nc1ccc(-c2cccs2)cc1NC(=O)c1ccc2c(c1)cc(C1CC1)n2CCN1CCOCC1 [ACY-1035],"Fold change vs veh, RWDD3",0.90
